Test results published in US6706880B2 (Research Triangle Institute, priority 1990, dated 2004).
Structures can show the parent of a compound that is named as a salt. Where two headings read alike, the source gives them in different places.

Key:
dopamine transporter = dopamine transporter (UniProt P23977); assay type: binding
Description: (§1) Illustrative in vitro assays for binding are described in Boja et al Ann. NY Acad. Sci. 654:282-291 (1992), which is incorporated herein by reference in its entirety. […] Alternatively, the compounds may be analyzed by their ability to inhibit reuptake of a labelled neurotransmitter in a sample, in particular, in synaptosomes.

serotonin transporter = molecular target: T1, serotonin transporter (Rattus norvegicus, UniProt P31652); test: Inhibition of [3H]paroxetine radioligand binding at the serotonin transporter
T1 construct: from tissue
Description: as §1

[1] = molecular target: norepinephrine transporter (UniProt Q9WTR4); test: Inhibition of [3H]nisoxetine radioligand binding at the norepinephrine transporter
Description: as §1

[2] = read-out: IC50 DA [3H]-WIN 35,428, Table IV
[3] = IC50 5-HT [3H]-paroxetine, Table IV
[4] = read-out: IC50 NE [3H]-nisoxetine, Table IV
[5] = IC50 5-HT [3H]-paroxatine, Table II
[6] = read-out: IC50 NE [3H]-nisoxetine, Table II
[7] = 5-HT=[3H] paroxetine, read-out: 5-HT IC50 for inhibition of radioligand binding
[8] = read-out: DA IC50 for inhibition of radioligand binding, DA=[3H]WIN 35,428
[9] = read-out: NEN IC50 for inhibition of radioligand binding, NEN=[3H] nisoxetine
[10] = 5-HT IC50 for inhibition of radioligand binding, 5-HT=[3H] paroxetine

T1 sequence (P31652 whole entry): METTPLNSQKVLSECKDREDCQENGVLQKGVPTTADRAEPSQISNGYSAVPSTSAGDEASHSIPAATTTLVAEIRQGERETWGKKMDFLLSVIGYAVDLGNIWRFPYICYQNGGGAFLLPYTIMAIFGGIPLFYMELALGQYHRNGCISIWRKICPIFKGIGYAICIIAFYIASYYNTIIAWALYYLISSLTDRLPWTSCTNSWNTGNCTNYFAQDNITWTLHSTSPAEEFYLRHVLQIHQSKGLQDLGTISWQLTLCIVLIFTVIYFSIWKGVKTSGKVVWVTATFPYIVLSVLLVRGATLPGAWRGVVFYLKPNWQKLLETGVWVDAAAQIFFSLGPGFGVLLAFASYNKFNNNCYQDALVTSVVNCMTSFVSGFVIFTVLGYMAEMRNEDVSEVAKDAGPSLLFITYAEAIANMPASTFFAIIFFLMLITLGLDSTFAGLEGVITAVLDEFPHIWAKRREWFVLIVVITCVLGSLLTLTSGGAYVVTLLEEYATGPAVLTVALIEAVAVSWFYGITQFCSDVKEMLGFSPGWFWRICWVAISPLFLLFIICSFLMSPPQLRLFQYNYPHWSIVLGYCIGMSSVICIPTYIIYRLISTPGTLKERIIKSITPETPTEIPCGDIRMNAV

SMILES | IC50 (dopamine transporter; [2]) | IC50 (serotonin transporter; [3]) | IC50 [1, 4] | IC50 (dopamine transporter; [8]) | IC50 [1, 9] | IC50 (serotonin transporter; [10]) | other results
CN1[C@H]2CC[C@@H]1[C@@H](CO)[C@@H](c1ccc(Cl)cc1)C2 [RTI-93] | 1.53 ± 0.15 nM | 204 ± 16 nM | 43.8 ± 6.4 nM |  |  |  | 
CN1[C@H]2CC[C@@H]1[C@@H](CO)[C@@H](c1ccc(Br)cc1)C2 [RTI-99] | 1.49 ± 0.06 nM | 51 ± 4.6 nM |  |  |  |  | 
CN1[C@H]2CC[C@@H]1[C@@H](CO)[C@@H](c1ccc(F)cc1)C2 [RTI-100] | 47 ± 4.6 nM | 4740 ± 335 nM |  |  |  |  | 
CN1[C@H]2CC[C@@H]1[C@@H](C(=O)O)[C@@H](c1ccc(I)cc1)C2 [RTI-102] | 474 ± 57 nM | 1930 ± 120 nM | 43400 nM |  |  |  | 
CN1[C@H]2CC[C@@H]1[C@@H](C(=O)O)[C@@H](c1ccc(Br)cc1)C2 [RTI-103] | 278 ± 43 nM | 3070 ± 208 nM | 17400 nM |  |  |  | 
CN1[C@H]2CC[C@@H]1[C@@H](C(=O)O)[C@@H](c1ccc(F)cc1)C2 [RTI-104] | 2740 ± 141 nM | > 100 nM | > 100000 nM |  |  |  | 
Cc1ccc([C@H]2C[C@@H]3CC[C@H]([C@H]2CN)N3C)cc1 [RTI-131] | 10.5 ± 1.7 nM | 855 ± 52 nM | 120 ± 20 nM |  |  |  | 
Cc1ccc([C@H]2C[C@@H]3CC[C@H]([C@H]2C#N)N3C)cc1 [RTI-158, 3β-(4-Methylphenyl)-tropane-2β-nitrile Hydrochloride] | 57 ± 7.3 nM | 5100 ± 315 nM | 1620 ± 136 nM |  |  |  | 
CN1[C@H]2CC[C@@H]1[C@@H](c1nnn[nH]1)[C@@H](c1ccc(Cl)cc1)C2 [RTI-163, 3β-(4-Chlorophenyl)-tropane-2β-tetrazole] |  |  |  |  |  |  | IC50 (serotonin transporter; [5]): 5460 ± 64 nM; IC50 [1, 6]: 17400 nM
CNC[C@H]1[C@@H](c2ccc(C)cc2)C[C@@H]2CC[C@H]1N2C [RTI-164] | 13.6 ± 2.03 nM | 2250 ± 94 nM | 280 ± 19 nM |  |  |  | 
Cc1cc([C@H]2[C@@H](c3ccc(Cl)cc3)C[C@@H]3CC[C@H]2N3C)on1 [RTI-165, 3β-(4-Chlorophenyl)-2β-(3-methylisoxazol-5-yl)tropane Hydrochloride] |  |  |  |  |  |  | IC50 (dopamine transporter; read-out: IC50 DA [3H]-WIN 35,428, Table II): 0.59 ± 0.04 nM; IC50 (serotonin transporter; [5]): 572 ± 58 nM; IC50 [1, 6]: 181 ± 12 nM
COC(=O)C1C(c2ccc(Cl)cc2)CC2CCC1N2C (stereo not shown) [RTI-4229-31] |  |  |  |  |  |  | IC50 (serotonin transporter; [7]): 44.5 nM
COC(=O)C1C(c2ccc(C)cc2)CC2CCC1N2C (stereo not shown) [RTI-4229-32] |  |  |  | 1.71 nM | 60 nM |  | 
COC(=O)C1C(c2ccc(Br)cc2)CC2CCC1N2C (stereo not shown) [RTI-4229-51] |  |  |  | 1.69 nM |  | 240 nM | 
COC(=O)C1C(c2ccc(I)cc2)CC2CCC1N2C (stereo not shown) [RTI-4229-55] |  |  |  | 1.26 nM | 36 nM |  | IC50 (serotonin transporter; [7]): 4.21 nM
CN1C2CCC1C(C(=O)OCCc1ccc(N)c(I)c1)C(c1ccc(Cl)cc1)C2 (stereo not shown) [RTI-4229-77] |  |  |  | 2.51 nM | 2250 nM |  | 
CCc1ccc(C2CC3CCC(C2C(=O)OC)N3C)cc1 (stereo not shown) [RTI-4229-83] |  |  |  | 55 nM |  |  | IC50 (serotonin transporter; [7]): 28.4 nM
Cc1noc(C2C(c3ccccc3)CC3CCC2N3C)n1 (stereo not shown) [RTI-4229-87] |  |  |  | 204 nM | 35800 nM | 28400 nM | 
COC(=O)C1C(c2ccc(F)c(C)c2)CC2CCC1N2C (stereo not shown) [RTI-4229-96] |  |  |  | 2.95 nM | 520 nM | 76 nM | 
COC(=O)[C@@H]1C2CCC(C[C@@H]1c1ccc(N)c(Br)c1)N2C (stereo partly shown) [RTI-4229-97] |  |  |  | 3.91 nM | 282 nM | 181 nM | 
COC(=O)[C@@H]1C2CCC(C[C@@H]1c1ccc(I)cc1)N2 (stereo partly shown) [RTI-4229-98] |  |  |  | 0.69 nM | 11 nM | 0.36 nM | 
CN1C2CCC1C(CO)C(c1ccc(I)cc1)C2 (stereo not shown) [RTI-4229-101] | 2.2 ± 0.19 nM | 26 ± 3.2 nM |  | 2.2 nM |  | 26 nM | 
CC(=O)OC[C@@H]1C2CCC(C[C@@H]1c1ccc(Cl)cc1)N2C (stereo partly shown) [RTI-4229-105] | 1.8 ± 0.05 nM | 143 ± 25 nM | 127 ± 5.9 nM | 1.6 nM | 127 nM | 143 nM | 
CN1C2CCC1[C@@H](CCl)[C@@H](c1ccc(Cl)cc1)C2 (stereo partly shown) [RTI-4229-108] | 2.64 ± 0.31 nM | 98 ± 8.7 nM | 129 ± 15 nM | 2.64 nM | 129 nM | 98 nM | 
COC(=O)C1C2CCC(CC1c1ccc(Cl)cc1)N2 (stereo not shown) [RTI-4229-110] |  |  |  | 0.62 nM | 5.45 nM |  | IC50 (serotonin transporter; [7]): 4.13 nM
COC(=O)[C@@H]1C2CCC(C[C@@H]1c1ccc(Cl)c(Cl)c1)N2C (stereo partly shown) [RTI-4229-111] |  |  |  | 0.79 nM | 18 nM | 3.13 nM | 
COC(=O)[C@@H]1C2CCC(C[C@@H]1c1ccc(Cl)c(C)c1)N2C (stereo partly shown) [RTI-4229-112] |  |  |  | 0.82 nM | 36.2 nM | 10.5 nM | 
CN1C2CCC1C(C(=O)Oc1ccccc1)C(c1ccc(Cl)cc1)C2 (stereo not shown) [RTI-4229-113] |  |  |  | 1.98 nM | 2960 nM |  | IC50 (serotonin transporter; [7]): 2330 nM
